Values quoted from earlier work, collected in publication PMC7259638, “Characterization of the intestinal absorption of morroniside from Cornus officinalis Sieb. et Zucc via a Caco-2 cell monolayer model” (PLoS ONE, 2020).

Test system: Caco-2 cell model
Set-up: method as in PMID 30671130
Conditions: cited from earlier work

Which “intestinal permeability (in words)” value (human intestinal Caco-2 cell model) does the source give for `COC(=O)C1=CO[C@@H](O[C@@H]2O[C@H](CO)[C@@H](O)[C@H](O)[C@H]2O)[C@@H]2[C@@H](C)[C@@H](O)C[C@H]12` [loganin] here?
Its value is “good intestinal permeability”.

And the BCRP substrate status (previous study)?
Its BCRP substrate status is “substrate of BCRP”.
